Data set [1] in a line: percutaneous penetration experiments with different microbubble sizes, pigskin. Type of data set: in vitro ADME, pig. To be noted: microbubbles 1 minute, then dye with ultrasound 15 minutes.
Text: In another experiment, the skin tissue simulator formed form the agar gel is replaced by a pigskin of 2 mm thickness. The perfusion zone was placed on the pigskin for conducting the percutaneous penetration experiments, and the experimental system and the methods were similar to the penetration-through experiments of the agar stimulator. The experiment also use different ultrasound energy for 1 W/cm^2, 2 W/cm^2 and 3 W/cm^2, and the particle sizes of the microbubbles in the microbubble ultrasonic contrast agent are about 1.4 μm, 2.1 μm, and 3.5 μm. […] Then the microbubble ultrasonic contrast agent was washed away. The dye solution was placed in the perfusion zone and the ultrasound was applied for 15 minutes to force the dye diffused into the tissue simulator.
A short description of data set [2]: penetration-through experiments with different microbubble sizes, agar tissue simulator. To be noted: 1 minute, 0.25 wt % Evans blue, microbubbles 2×10^8 particles/ml. Type of data set: in vitro ADME.
Text: The percutaneous penetration experiments with different microbubble diameters are also been made. […] A skin tissue simulator 20 is formed of 0.3 wt % agarose gel (agar gel). The mechanical oscillation wave source may be an ultrasound probe 40. The ultrasound probe 40 is mounted on the dropper rack 22 and the ultrasound probe 40 is set at a distance of about 5 mm from the tissue stimulator 20. The conductive gel 35 is disposed on the probe 40 so that the conductive gel 35 is located apart from the tissue stimulator 20 with a distance of about 3 mm. The perfusion zone 33 is placed above the tissue stimulator 20 and the conductive gel 30 is located outside of the perfusion zone 33.
And the dye for observing the penetration depth in the skin tissue simulator is Evans blue which mixed with water to form a 0.25 wt % dye solution.
The surface of the tissue stimulator is rinsed three times (1000 μl). The control group utilized the saline solution of 0.25 wt % Evans blue dye. […] After the dye placed in the perfusion zone for a predetermined time, the penetration depth of the dye of the tissue stimulator was observed by the microscope and the results were processed by MATLAB program to calculate the dye penetration depth.
In the following experiments, different parameters were changed to find the best conditions for the penetration depth of the dye. […] And each group further had three experiments with the different ultrasound energy for 1 W/cm^2, 2 W/cm^2, and 3 W/cm^2. The ultrasound applied for 1 minute.

For the molecule `Cc1cc(-c2ccc(/N=N/c3ccc4c(S(=O)(=O)O)cc(S(=O)(=O)O)c(N)c4c3O)c(C)c2)ccc1/N=N/c1ccc2c(S(=O)(=O)O)cc(S(=O)(=O)O)c(N)c2c1O` [U only, Evans blue], the “penetration depth of the dye” value is 12.78 μm in data set [1] (ultrasound 1 W (1 W/cm^2)); 14.17 μm in data set [1] (ultrasound 2 W (2 W/cm^2)); 15.5 μm in data set [1] (ultrasound 3 W (3 W/cm^2)); 373 ± 23 μm in data set [2] (ultrasound 1 W (1 W/cm^2)); 354 ± 14 μm in data set [2] (ultrasound 2 W (2 W/cm^2)); 379 ± 20 μm in data set [2] (ultrasound 3 W (3 W/cm^2)).

(Values after US20150056273A1 (National Taiwan University of Science and Technology, priority 2013, published 2015).)
